Key:
[1] = Example 5: titration of sand/amine/brine mixture with 10% acetic acid, amine in solution by GC; details: core sand in brine #2, titrated with 10 wt % acetic acid
Description: (§1) Concentration of amines, in media and water, were analyzed by gas chromatography (GC). An Agilent Model 5890 (Agilent, Wilmington, Del.), GC equipped with a […] and a split/splitless injector, a DB-FFAP column (30 meter length×0.32 millimeter (mm) […]×0.25 micrometer particle size). […] The system was calibrated using a sample of N,N-Dimethyl-1-Dodecaneamine (Aldrich). Helium was used as the carrier gas. A temperature gradient of 50 degrees Celsius (° C.) to 250° C. at 30° C. increase per minute (min) was used.
The same procedure outlined in Example 4 was repeated here to produce the sand/amine mixture. 30.85 grams (gr) of the sand/amine mixture was added to 100 ml of brine #2 (Table 3) to create the sand/amine/brine mixture.

[2] = Example 4: titration of sand/amine/brine mixture with 10% nitric acid, amine in solution by GC; details: core sand in brine #2, titrated with 10 wt % nitric acid
Description: as §1
The procedure outlined in Example 2 was used to produce the sand/amine mixture except that 519 mg of the amine, 10 gr of Pentane. and 60.062 gr of sand from the Oa and Ob layers were used. 29.065 gr of this sand/amine mixture was added to 100 ml of brine #2 (Table 3) to create the sand/amine/brine mixture. […] The concentration of the amine in the water should have been about […] if all the amine was dissolved in brine #2. […] 0.1 ml of 10 weight percent (wt %) nitric acid in water was added to this solution, and the pH and the amine concentration were measured again.

[3] = Example 2: titration of amine coated core sand in brine #2 with 1N HCl, amine in solution by GC; format: physicochemical; details: core sand in brine #2, titrated with 1N HCl
Description: Helium was used as the carrier gas.
38 milligrams (mg) of N N-Dimethyl-1-Dodecanamine (hereafter referred to as “the amine”) was added to 10.210 gr of Pentane. This solution was added to 10.1845 gr of specific sand layers (Oa and Ob) obtained from the Schrader Bluff formation of the Milne Point Unit of the Alaskan North slope. The oil content of the sand was first removed using a mixture of methanol and toluene (50/50, volume/volume) as solvent washes. The solvent mixture was subsequently evaporated off the core sand to produce clean, dry, flowable core sand. This sand was mixed with the amine and pentane solution to produce a slurry. This slurry was thoroughly mixed and the pentane was evaporated off leaving the amine on the sand (hereafter referred to as sand/amine mixture). 100 ml of brine #2 (Table 3) was added to the sand/amine mixture to create the sand/amine/brine mixture. […] The fact that the amine was not detected underlined its strong binding to the sand particles. […] The data underlines the remarkable efficiency of an acid at ionizing and removing the amine from the sand.

For CCCCCCCCCCCCN(C)C [N-N-dimethyl-1-dodeanamine, N N-Dimethyl-1-Dodecanamine], the “pH below which complete ionization and solubilization in the water of the amine was observed” value [1] was ~6.7 pH, the “pH below which complete ionization and solubilization in the water of the amine was observed” value [2] was ~6.7 pH and the “pH below which complete ionization and solubilization of the amine in the water was observed” value [3] was ~6.0 pH.

— patent US8408292B2, “Method for pre-treatment of subterranean sites adjacent to water injection wells” (E.I. du Pont de Nemours and Company, priority 2010, dated 2013)
